Laboratory results reported in article PMC8421423, “Cellular model system to dissect the isoform-selectivity of Akt inhibitors” (Nature Communications, 2021).
Where “and” joins values, the source holds several entries; their conditions need not be identical. Identical values can stand only once. Like-named read-outs stand apart in the source and are kept apart here.

Columns and labels:
Ba/F3^myr-Akt3 cells = assay: CellTiter-Glo cell viability assay; conditions: for Log ratio EC50 [Akt] / EC50 [Akt], Akt3 / Akt2: cell viability assay Ba/F3 myr-Akt cells, log units
Procedure: (§1) On day 0, cells were plated into white 384-well cell culture plates (Greiner Bio-One) using a Multidrop reagent dispenser (Thermo Fisher Scientific) at cell numbers that ensure linear and optimal luminescent signal intensity (Ba/F3myr-Akt1: 600 cells/well, Ba/F3myr-Akt2: 800 cells/well, Ba/F3myr-Akt3: 800 cells/well). […] Cell viability was analyzed on day 4 using the CellTiter-Glo Assay (Promega) as per the manufacturer’s instructions. […] All experimental points were measured in duplicates for each plate and were replicated in at least three plates.

Akt1 [1] = molecular target: Akt1 (Homo sapiens, UniProt P31749); assay: STK HTRF KinEASE activity-based assay (IC50); conditions: for Log ratio IC50 [Akt] / IC50 [Akt], Akt1 / Akt2: biochemical activity based assay, log units
parental Ba/F3 cells = assay: CellTiter-Glo cell viability assay; format: cell-based, murine
Ba/F3^myr-Akt2 cells = assay: CellTiter-Glo cell viability assay
Akt2 = Akt2 (Homo sapiens, UniProt P31751); assay: STK HTRF KinEASE activity-based assay (IC50)
Ba/F3^myr-Akt1 cells = assay: CellTiter-Glo cell viability assay; conditions: for Log ratio EC50 [Akt] / EC50 [Akt], Akt1 / Akt2: cell viability assay Ba/F3 myr-Akt cells, log units
Procedure: as §1

Akt1 [2] = molecular target: T1, Akt1 (Homo sapiens, UniProt P31749, E114A/E115A/E116A); assay: ESI-MS/MS of tryptic digest (modified cysteine residues); format: binding; conditions: 5-fold molar excess of inhibitor
T1 construct: AKT1(2–446, E114/115/116A); His6 with TEV protease recognition site (N, cleaved yes); made in house; host or cells: Spodoptera frugiperda (Sf9)
Procedure: ESI-MS/MS samples were prepared as stated above followed by steps of reduction, alkylation, and tryptic digest. The digested samples were stage tip-purified using C18 tips and according to a protocol described elsewhere. Subsequently, samples were thawed, dissolved in 20 μL of 0.1% TFA in water, sonicated at room temperature for 15 min, and centrifuged at 15,000×g for 1 min shortly before analysis. In all, 3 μL of sample were loaded onto a pre-column cartridge and desalted for 5 min using 0.1% TFA in water as eluent at a flow rate of 30 μL/min. The samples were back-flushed from the pre-column to the nano-HPLC column during the whole analysis. Elution was performed using a gradient starting at 5% B with a final composition of 30% B after 35 min (flow rate 300 nL/min) using 0.1% formic acid in water as eluent A and 0.1% formic acid in acetonitrile as eluent B and a column temperature of 40 °C. […] During the complete gradient cycle, a typical TOP10 shot-gun proteomics method for the MS and MS/MS analysis was used. For full scan MS experiments a mass range of m/z 300–1650 was scanned with a resolution of 70000. MS/MS experiments were followed by up to 10 high energy collision dissociation (HCD) MS/MS scans with a resolution of 17,500 of the most intense at least doubly charged ions. Data evaluation was performed using MaxQuant[50]. Spectra were searched against the specific Akt sequence and a contamination database using a false discovery rate of 1% on peptide and protein level using a decoy database for determination of the false discovery rate. For database search oxidation of methionine and N-terminal acetylation of proteins, carbamidomethylation of cysteines, and artificial modification of cysteines were defined as variable modifications.

Akt3 = Akt3 (Homo sapiens, UniProt Q9Y243); assay: STK HTRF KinEASE activity-based assay (IC50)
[3] = Mus musculus, read-out: CTG BaF3myr-Akt3, individual determinations, single replicates
[4] = read-out: CTG BaF3myr-Akt3, individual determinations, single replicates
[5] = HTRF IC50 Akt1, Mean, mean of replicates
[6] = HTRF IC50 Akt1, individual determinations, single replicates
[7] = IC50 Akt1, HTRF, ATP at KM, 1 h preincubation
[8] = Mus musculus, BaF3, CTG, parental BaF3 cell line, read-out: EC50 BaF3
[9] = Mus musculus, BaF3, parental cells, mean of replicates, read-out: CTG BaF3, Mean
[10] = Mus musculus, BaF3, parental cells, single replicates, read-out: CTG BaF3, individual determinations
[11] = parental cells, single replicates, read-out: CTG BaF3, individual determinations
[12] = read-out: CTG BaF3myr-Akt2, individual determinations, single replicates
[13] = HTRF IC50 Akt2, individual determinations, single replicates
[14] = IC50 Akt2, HTRF, ATP at KM, 1 h preincubation
[15] = Mus musculus, read-out: CTG BaF3myr-Akt1, Mean, mean of replicates
[16] = Mus musculus, read-out: CTG BaF3myr-Akt1, individual determinations, single replicates
[17] = read-out: CTG BaF3myr-Akt1, individual determinations, single replicates
[18] = IC50 Akt3, HTRF, ATP at KM, 1 h preincubation

Chain of Akt3 (Q9Y243 whole entry): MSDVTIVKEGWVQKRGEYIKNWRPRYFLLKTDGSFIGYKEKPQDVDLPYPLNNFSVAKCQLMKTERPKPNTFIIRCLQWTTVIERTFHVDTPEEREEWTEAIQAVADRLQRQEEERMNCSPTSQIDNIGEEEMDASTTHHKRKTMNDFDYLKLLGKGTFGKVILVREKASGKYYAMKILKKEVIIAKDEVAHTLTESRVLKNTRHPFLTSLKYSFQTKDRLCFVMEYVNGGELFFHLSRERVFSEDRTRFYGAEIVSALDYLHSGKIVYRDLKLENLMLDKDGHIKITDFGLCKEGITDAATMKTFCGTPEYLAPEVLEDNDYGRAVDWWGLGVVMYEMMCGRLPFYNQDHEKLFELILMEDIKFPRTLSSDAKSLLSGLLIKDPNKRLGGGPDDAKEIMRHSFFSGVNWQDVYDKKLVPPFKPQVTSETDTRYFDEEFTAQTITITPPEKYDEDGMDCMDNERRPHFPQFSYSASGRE
Chain of Akt1 (Homo sapiens, UniProt P31749) (P31749 whole entry): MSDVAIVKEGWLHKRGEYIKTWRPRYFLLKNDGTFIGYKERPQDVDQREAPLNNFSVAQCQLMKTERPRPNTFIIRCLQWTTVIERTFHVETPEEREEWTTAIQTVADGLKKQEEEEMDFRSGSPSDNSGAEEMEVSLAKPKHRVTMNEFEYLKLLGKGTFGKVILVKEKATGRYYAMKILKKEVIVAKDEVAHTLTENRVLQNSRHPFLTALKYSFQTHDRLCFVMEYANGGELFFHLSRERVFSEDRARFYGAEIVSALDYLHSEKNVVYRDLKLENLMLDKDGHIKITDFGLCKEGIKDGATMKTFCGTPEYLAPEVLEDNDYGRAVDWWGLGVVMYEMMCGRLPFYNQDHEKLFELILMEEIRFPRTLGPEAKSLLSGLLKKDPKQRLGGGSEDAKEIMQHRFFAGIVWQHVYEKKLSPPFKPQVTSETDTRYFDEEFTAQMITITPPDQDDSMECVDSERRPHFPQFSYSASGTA
Chain of Akt2 (P31751 whole entry): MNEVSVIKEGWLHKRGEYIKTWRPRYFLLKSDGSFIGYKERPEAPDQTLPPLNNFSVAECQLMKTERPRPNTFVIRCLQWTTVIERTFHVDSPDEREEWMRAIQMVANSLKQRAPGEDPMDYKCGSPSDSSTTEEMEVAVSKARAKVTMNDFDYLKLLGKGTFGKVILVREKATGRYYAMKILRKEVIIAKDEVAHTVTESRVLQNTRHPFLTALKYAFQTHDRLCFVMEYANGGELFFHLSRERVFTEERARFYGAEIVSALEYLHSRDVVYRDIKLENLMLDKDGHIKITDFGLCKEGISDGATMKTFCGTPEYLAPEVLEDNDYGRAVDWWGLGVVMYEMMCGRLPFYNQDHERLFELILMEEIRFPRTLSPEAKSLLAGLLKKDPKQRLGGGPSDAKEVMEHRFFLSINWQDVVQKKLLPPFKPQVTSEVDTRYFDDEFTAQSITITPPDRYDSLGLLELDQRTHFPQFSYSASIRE
T1 sequence (P31749 2-446 E114A/E115A/E116A): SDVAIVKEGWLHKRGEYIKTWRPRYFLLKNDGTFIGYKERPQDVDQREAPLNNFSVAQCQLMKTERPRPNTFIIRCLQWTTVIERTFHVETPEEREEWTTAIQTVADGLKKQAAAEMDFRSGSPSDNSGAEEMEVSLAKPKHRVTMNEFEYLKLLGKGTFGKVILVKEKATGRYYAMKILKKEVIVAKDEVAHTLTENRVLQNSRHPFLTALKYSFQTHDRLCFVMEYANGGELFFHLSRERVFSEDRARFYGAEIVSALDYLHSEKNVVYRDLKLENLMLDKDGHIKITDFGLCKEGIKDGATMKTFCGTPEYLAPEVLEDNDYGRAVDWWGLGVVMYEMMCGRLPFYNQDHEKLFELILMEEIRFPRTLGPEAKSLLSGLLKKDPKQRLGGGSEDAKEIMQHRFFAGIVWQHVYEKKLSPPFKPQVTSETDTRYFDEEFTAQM

SMILES | EC50 (Ba/F3^myr-Akt3 cells; [3]) [µM] | Log ratio EC50 [Akt] / EC50 [Akt], Akt3 / Akt2 (Ba/F3^myr-Akt3 cells) | EC50 (Ba/F3^myr-Akt3 cells; [4]) | IC50 (Akt1 [1]; [5]) [µM] | IC50 (Akt1 [1]; [6]) | IC50 (Akt1 [1]; [7]) [µM] | Log ratio IC50 [Akt] / IC50 [Akt], Akt1 / Akt2 (Akt1 [1]) | EC50 (parental Ba/F3 cells; [8]) [µM] | EC50 (parental Ba/F3 cells; [9]) [µM] | EC50 (parental Ba/F3 cells; [10]) [µM] | EC50 (parental Ba/F3 cells; [11]) [µM] | EC50 (Ba/F3^myr-Akt2 cells; [12]) | IC50 (Akt2; [13]) | IC50 (Akt2; [14]) [µM] | EC50 (Ba/F3^myr-Akt1 cells; [15]) [µM] | EC50 (Ba/F3^myr-Akt1 cells; [16]) [µM] | Log ratio EC50 [Akt] / EC50 [Akt], Akt1 / Akt2 (Ba/F3^myr-Akt1 cells) | EC50 (Ba/F3^myr-Akt1 cells; [17]) | modified cysteine residues in Akt1 (MS/MS) (Akt1 [2]) | IC50 (Akt3; [18]) [µM] | other results
C=CC(=O)Nc1ccc2[nH]c(=O)n(C3CCN(Cc4ccc(-c5ncc(CO)cc5-c5ccccc5)cc4)CC3)c2c1 [compound 3] | > 30 | -0.15 | > 30 µM | 0.184 | 0.133 µM and 0.103 µM and 0.189 µM and 0.31 µM | 0.186 ± 0.079 | -0.71 | > 30 | > 30 | > 30 | > 30 | 21.2 µM and 12.4 µM and > 30 µM | 1.02 µM and 0.724 µM and 1.14 µM | 0.961 ± 0.174 | 28.3 | 26.6 | 0.13 | 28.3 µM | Cys296 and Cys310 | > 20 | EC50 BaF3myr-Akt3 (Ba/F3^myr-Akt3 cells; CTG): generally inactive; EC50 (Ba/F3^myr-Akt3 cells; Mus musculus, read-out: CTG BaF3myr-Akt3, Mean, mean of replicates): > 30 µM; EC50 (Ba/F3^myr-Akt3 cells; Mus musculus, read-out: EC50 BaF3myr-Akt3, CTG): > 30 µM; IC50 (Akt2; HTRF IC50 Akt2, Mean, mean of replicates): 0.961 µM; EC50 BaF3myr-Akt1 (Ba/F3^myr-Akt1 cells; CTG): generally inactive
C=CC(=O)Nc1ccc2[nH]c(=O)n(C3CCN(Cc4ccc(-c5ncc(C(=O)NC)cc5-c5ccccc5)cc4)CC3)c2c1 [compound 6] | > 30 | -0.38 | 22.6 µM and 24.5 µM | 0.112 | 0.113 µM and 0.133 µM and 0.0909 µM | 0.112 ± 0.021 | 0.02 | > 30 | > 30 | > 30 | > 30 | 7.18 µM and 12.6 µM | 0.0841 µM and 0.151 µM and 0.0886 µM | 0.108 ± 0.031 | 9.61 | 7.7 | -0.05 | 11.7 µM and 9.47 µM | Cys296 and Cys310 | 5.75 ± 1.55 | loss of activity compared to the ester version (Akt1 [1]; Akt1, biochemical IC50): 4 fold; EC50 (Ba/F3^myr-Akt2 cells; Mus musculus, read-out: CTG BaF3myr-Akt2, Mean, mean of replicates): 10.8 µM; EC50 (Ba/F3^myr-Akt2 cells; Mus musculus, read-out: CTG BaF3myr-Akt2, individual determinations, single replicates): 12.6 µM; IC50 (Akt3; HTRF IC50 Akt3, Mean, mean of replicates): 5.75 µM; IC50 (Akt3; HTRF IC50 Akt3, individual determinations, single replicates): 5.69 µM and 3.89 µM and 7.68 µM
